Where “and” joins values, the source holds several entries; their conditions need not be identical. Equal values may be shown once.
Tests used:
Assay type in all cases: in vivo, C57BL/6 mice
[1] = test system: inguinal lymph nodes (LN); test: Whole organ transcriptome (GeneChip microarray) of draining inguinal lymph nodes 6 h after adjuvant administration: sDEGs, gene modules, hierarchical clustering; as to adjuvant group (cluster) in LN: key: G1 (interferon signaling); G2 (metabolism of lipids and lipoproteins); G3 (response to stress); G4 (response to wounding); G5 (phosphate-containing compound metabolic process); G6 (phagosome)
LV, SP and LNs = test: Whole organ transcriptome across organs (adjuvant gene space): gene responses and adjuvant grouping; settings: hierarchical clustering; LV, SP and/or LNs
[2] = test system: preferentially upregulated genes in LV, SP, LN; test: Z-score-based differential gene expression analysis (adjuvant group- or adjuvant-associated genes, 40 module mapping, TargetMine annotation); set-up: key to z sum, 1458589_at ---: sum of the per-gene fold-change z-scores of the triplicate samples; settings: ID, LN
Summary of the method: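 Gene groups for each organ were built from combined z-score cutoffs across adjuvants, ranging from z>1 to z>3. Scores came from fold changes standardized per gene over the whole organ data set, with the three replicate z-scores added per adjuvant; sums above 3 marked preferential expression.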

Nc1nc2c(ncn2[C@@H]2O[C@@H]3COP(=O)(O)O[C@H]4[C@@H](O)[C@H](n5cnc6c(=O)[nH]c(N)nc65)O[C@@H]4COP(=O)(O)O[C@H]3[C@H]2O)c(=O)[nH]1 [cdiGMP, Cyclic diguanylate monophosphate]
module M40^LN (immune system process; dendritic cells, macrophages, neutrophils, stromal cells) ([1]; LN, 6 h): strongly induced
adjuvant group (cluster) in LN ([1]; hierarchical clustering, lymph node): G1
adjuvant group (cluster) within the adjuvant gene space (LV, SP and LNs): group (G) 1
z sum, 1428027_at LOC100653389 ([2]; Modules 26): 3.943
z sum, 1419721_at Niacr1 ([2]; Modules 27): 3.925
z sum, 1418424_at Tnfaip6 ([2]; Modules 29): 3.961
z sum, 1419534_at Olr1 ([2]; Modules 29): 3.953
z sum, 1421457_a_at Samsn1 ([2]; Modules 29): 3.927
z sum, 1422305_at Ifnb1 ([2]; Modules 29): 3.959
z sum, 1423028_at Ifna2 ([2]; Modules 29): 3.966
z sum, 1425837_a_at Ccrn4l ([2]; Modules 29): 3.961
z sum, 1436387_at C330006P03Rik///Homer1 ([2]; Modules 29): 3.967
z sum, 1439349_at Sbno2 ([2]; Modules 29): 3.94
z sum, 1444010_at Eif4e ([2]; Modules 29): 3.936
z sum, 1448325_at Ppp1r15a ([2]; Modules 29): 3.957
z sum, 1449311_at Bach1 ([2]; Modules 29): 3.924
z sum, 1450297_at Il6 ([2]; Modules 29): 3.956
z sum, 1455197_at Rnd1 ([2]; Modules 29): 3.976
z sum, 1455899_x_at Socs3 ([2]; Modules 29): 3.93
z sum, 1417252_at Ptgs2 ([2]; Modules 34): 3.953
z sum, 1417263_at Ptgs2 ([2]; Modules 34): 3.945
z sum, 1419132_at Tfr2 ([2]; Modules 34): 3.95
z sum, 1421473_at Il1a ([2]; Modules 34): 3.96
z sum, 1439981_at Tespa1 ([2]; Modules 35): 3.95
z sum, 1441843_s_at 5230400M03Rik ([2]; Modules 35): 3.967
z sum, 1442556_at --- ([2]; Modules 35): 3.981
z sum, 1443414_at C78513 ([2]; Modules 35): 3.922
z sum, 1444598_at --- ([2]; Modules 35): 3.93
z sum, 1445534_at --- ([2]; Modules 35): 3.938
z sum, 1446245_at --- ([2]; Modules 35): 3.919
z sum, 1457944_at --- ([2]; Modules 35): 3.94
z sum, 1458376_at B930025B16Rik ([2]; Modules 35): 3.963
z sum, 1459144_at --- ([2]; Modules 35): 3.966
z sum, 1425687_at Cflar ([2]; Modules 36): 3.968
z sum, 1427736_a_at Ccrl2 ([2]; Modules 36): 3.958
z sum, 1449169_at Has2 ([2]; Modules 36): 3.922
z sum, 1453636_at Pcgf5 ([2]; Modules 36): 3.972
z sum, 1457888_at --- ([2]; Modules 36): 3.925
z sum, 1419508_at Ripk1 ([2]; Modules 37): 3.938
z sum, 1421578_at Ccl4 ([2]; Modules 37): 3.99
z sum, 1421679_a_at Cdkn1a ([2]; Modules 37): 3.98
z sum, 1424638_at Cdkn1a ([2]; Modules 37): 3.93
z sum, 1433508_at Klf6 ([2]; Modules 37): 3.947
z sum, 1434350_at Csrnp1 ([2]; Modules 37): 3.966
z sum, 1439680_at Tnfsf10 ([2]; Modules 37): 3.927
z sum, 1448724_at Cish ([2]; Modules 37): 3.94
z sum, 1451340_at Arid5a ([2]; Modules 37): 3.953
z sum, 1453851_a_at Gadd45g ([2]; Modules 37): 3.961
z sum, 1457404_at Nfkbiz ([2]; Modules 37): 3.989
z sum, 1458589_at --- ([2]; Modules 37): 3.945
z sum, 1422054_a_at 5kil ([2]; Modules 40): 3.92
z sum, 1428735_at Cd69 ([2]; Modules 40): 3.941
z-score of fold change, 1428027_at LOC100653389 ([2]; samples x1-x3, Modules 26): 1.302 and 1.534 and 1.106
z-score of fold change, 1419721_at Niacr1 ([2]; samples x1-x3, Modules 27): 1.493 and 1.403 and 1.03
z-score of fold change, 1418424_at Tnfaip6 ([2]; samples x1-x3, Modules 29): 1.141 and 1.631 and 1.189
z-score of fold change, 1419534_at Olr1 ([2]; samples x1-x3, Modules 29): 1.484 and 1.094 and 1.375
z-score of fold change, 1421457_a_at Samsn1 ([2]; samples x1-x3, Modules 29): 1.437 and 1.192 and 1.298
z-score of fold change, 1422305_at Ifnb1 ([2]; samples x1-x3, Modules 29): 0.997 and 1.431 and 1.532
z-score of fold change, 1423028_at Ifna2 ([2]; samples x1-x3, Modules 29): 1.076 and 1.31 and 1.58

Source: patent US20230021483A1, “[…] […] METHOD AND CLASSIFICATION OF PHARMACEUTICAL COMPONENTS BY USING TRANSCRIPTOMES” (National Institutes of Biomedical Innovation, Health and …, priority 2016, published 2023)
